Data on one molecule can be found in the NIST ThermoML archive (doi:10.1021/acs.jced.8b00936).

± gives the expanded uncertainty stated by the source.

The conditions of the data set: 100 kPa, Liquid, Pycnometric method.

One may read the mass density as mass per unit of volume.

In the case of `CCCCOCCOCCCC` [5,8-dioxadodecane], the mass density reads like this: (273.15 K) 859.9 ± 4.9 kg/m3; (283.15 K) 849.3 ± 4.8 kg/m3.
